Legend:
HeLa cells = test: sulforhodamine B (SRB) antiproliferative assay; type: cell-based, human; conditions: 48 h; mean ± SEM; read-out: GI50, concentration that causes a 50% decrease in proliferation, HeLa
Description: (§1) HCC1806 (CRL-2335) and HCC1937 (CRL-2336) human triple-negative breast cancer cells, HeLa (CCL-2) cervical cancer cells and SK-OV-3 (HTB-77) ovarian cancer cells were obtained from ATCC (Manassas, Va.) and validated by STR profiling (Genetica). SK-OV-3 cells stably overexpressing Pgp by adenoviral-mediated expression of MDR1 were obtained from Dr. Susan Kane and subcloned by limiting dilution to isolate the single-cell clones utilized in these studies as SK-OV-3-MDR-1-6/6 (Risinger, A. L. et al. (2008) Cancer Res. 68, 8881-8888). A single-cell clone from transfection of HeLa cells with βIII-tubulin, designated wild type βIII, was constructed and obtained from Dr. Richard Luduena (Risinger, A. L. et al. (2008) Cancer Res. 68, 8881-8888). HCC1806 and HCC1937 cells were cultured in RPMI 1640 media (Corning) with 10% FBS (Cellgro) and 50 μg/mL gentamicin (Gibco). HeLa, […] expressing HeLa, SK-OV-3 and SK-OV-3/MDR-1-6/6 cells were grown in BME media with Earle's salts (Gibco) with 10% FBS, 1× final 1% GlutaMax™ Supplement (Gibco), and […] gentamicin. The use of HeLa cells allows for the direct comparison of the in vitro potency as compared to other compounds of this class, which have been predominantly reported in this line and compound potencies are consistent among three additional cancer cell lines. HeLa cells were also used for ectopic expression of tubulin mutants due to the high degree of transfectability of this cell line. Cells were tested for mycoplasma contamination using the Mycoplasma Detection Kit-Quick Test (Cat: B39032, Lot: JW004).
(§2) The sulforhodamine B (SRB) assay was utilized to examine the antiproliferative and cytotoxic effects of the compounds (Skehan, P. et al. (1990) J. Natl. Cancer Inst. 82, 1107-1112; Vichai and Kirtikara (2006) Nat. Protoc. 1, 1112-1116). Approximately 2,000 cells per well (for SK-OV-3, HeLa and βIII-tubulin expressing HeLa) or 4,000 cells per well (for HCC1806 and HCC1937) were seeded in 96-well plates. For each biological replicate, cells were treated in triplicate with each concentration of compound or vehicle control for 48 h in a final volume of 200 μL. The plates were fixed with 10% trichloroacetic acid for protein precipitation of adherent cells and then washed with distilled water. 100 μL of SRB dye, which binds protein stoichiometrically, was added and then unbound dye removed with 1% acetic acid followed by the addition of 200 μL 10 mM Tris to solubilize the dye, which was quantified by absorbance at 560 nm. The percent growth of treated cells relative to the density at the time of drug addiction was calculated as compared to vehicle treated cells.

SK-OV-3 cells = test: sulforhodamine B (SRB) antiproliferative assay; type: cell-based, human; conditions: 48 h; mean ± SEM; read-out: GI50, concentration that causes a 50% decrease in proliferation, SK-OV-3
Description: as §1, §2

[1] = target: T1, purified porcine brain tubulin (Sus scrofa, UniProt P02554); test: biochemical tubulin polymerization assay; conditions: tubulin 20 μM
T1 construct: purified porcine brain tubulin (Cytoskeleton); purchased Cytoskeleton; host or cells: porcine brain
T1 sequence (P02554 whole entry): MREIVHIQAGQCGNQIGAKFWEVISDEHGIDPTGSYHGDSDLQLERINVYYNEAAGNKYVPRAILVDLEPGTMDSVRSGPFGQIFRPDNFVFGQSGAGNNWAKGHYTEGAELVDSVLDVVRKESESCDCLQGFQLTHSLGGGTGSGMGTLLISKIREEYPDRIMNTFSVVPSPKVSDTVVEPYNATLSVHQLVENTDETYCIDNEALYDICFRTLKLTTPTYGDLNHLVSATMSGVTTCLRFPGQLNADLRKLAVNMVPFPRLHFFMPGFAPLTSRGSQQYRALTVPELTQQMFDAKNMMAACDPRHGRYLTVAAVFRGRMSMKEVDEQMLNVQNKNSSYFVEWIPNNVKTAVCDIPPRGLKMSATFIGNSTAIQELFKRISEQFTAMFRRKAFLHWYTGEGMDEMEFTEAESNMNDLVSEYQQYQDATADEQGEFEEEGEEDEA
T1 sequence (P02550 whole entry partner): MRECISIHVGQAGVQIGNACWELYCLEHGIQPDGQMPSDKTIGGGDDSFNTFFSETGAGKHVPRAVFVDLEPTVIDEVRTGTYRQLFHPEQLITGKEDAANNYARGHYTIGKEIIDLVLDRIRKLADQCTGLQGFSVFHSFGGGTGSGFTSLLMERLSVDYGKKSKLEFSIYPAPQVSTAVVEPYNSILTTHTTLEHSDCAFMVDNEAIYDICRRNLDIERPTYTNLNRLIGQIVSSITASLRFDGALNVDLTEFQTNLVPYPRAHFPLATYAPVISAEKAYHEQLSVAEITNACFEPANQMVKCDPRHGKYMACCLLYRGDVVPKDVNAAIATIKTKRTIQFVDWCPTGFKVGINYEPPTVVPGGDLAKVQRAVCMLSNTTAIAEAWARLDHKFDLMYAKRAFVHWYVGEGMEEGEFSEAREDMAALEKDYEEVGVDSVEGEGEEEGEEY
Experimental: Exemplary results of the […] tubulin polymerization assay are illustrated in FIG. 3, FIG. 4B, and FIG. 5B and were obtained as described in Risinger et al., Cancer Research, 2013.
Biochemical tubulin polymerization assays were performed using purified porcine brain tubulin (Cytoskeleton). In individual wells of a 96-well plate, 1 μL of each 100× drug stock was incubated with 20 μM porcine brain tubulin in GPEM glycerol buffer (1 mM GTP, 10% glycerol, 80 mM PIPES pH 6.9, 2 mM MgCl2 and 0.5 mM EGTA) in a final volume of 100 μL. Pure porcine tubulin was prepared on ice at 4° C. to inhibit tubulin polymerization until the assay was initiated, while the plate reader was pre-warmed to 37° C. Tubulin polymerization was measured every minute for an hour by light scattering at 340 nm in a Spectramax plate reader using SoftMax software (Molecular Devices). Light scattering was normalized to the initial measurement for each well. For the probe-tubulin binding assay, samples were prepared on ice in tubes instead of a 96 well plate, and moved to a 37° C. heat block to initiate binding and polymerization. The time zero (0′) sample consisted of tubulin polymerization buffer prior to addition of taccalonolide probe. […]

Which GI50 (HeLa cells) does the source give for `CC(=O)O[C@H]1[C@H]2[C@H]([C@@H]3[C@@H](O)[C@@H]4[C@H]([C@H](C)[C@@H]5O[C@@]56OC(=O)[C@@](C)(O)[C@]46C)[C@@]3(C)[C@H]1OC(C)=O)[C@@H](O)C(=O)[C@H]1C[C@@H]3O[C@@H]3[C@H](OC(C)=O)[C@]21C` [compound 2, taccalonolide AJ, reference compound] here?
The GI50 was 8.5 nM.

What about the GI50 (SK-OV-3 cells) of the same compound?
The GI50 was 6.2 nM.

And the “concentration range promoting polymerization of purified tubulin” value [1]?
Its value is 5 to 20 µM.

From patent US20230061432A1, “NEW TECHNOLOGY TO CONJUGATE THE TACCALONOLIDE MICROTUBULE STABILIZERS WITH LINKERS/PAYLOADS” (priority 2019, published 2023)
